In patent publication US6897210B2, “Quinazoline derivatives and pharmaceutical compositions containing them” (Zeneca Limited, priority 1996, dated 2005):

How the values were obtained:
[1] = system: VEGF receptor tyrosine kinase (Flt, KDR); assay: In vitro receptor tyrosine kinase inhibition test (VEGF receptor); type: biochemical; conditions: VEGF receptor tyrosine kinase compared with EGF receptor tyrosine kinase
From the text: (a) In Vitro Receptor Tyrosine Kinase Inhibition Test
This assay determines the ability of a test compound to inhibit tyrosine kinase activity. […] These may then be expressed in a suitable expression system to obtain polypeptide with tyrosine kinase activity. […] This recombinant construct was co-transfected into insect cells (for example Spodoptera frugiperda 21(Sf21)) with viral DNA (eg Pharmingen BaculoGold) to prepare recombinant baculovirus.
For expression of cFlt tyrosine kinase activity, Sf21 cells were infected with plaque-pure cFlt recombinant virus at a multiplicity of infection of 3 and harvested 48 hours later. […] The suspension was centrifuged for 10 minutes at 13,000 rpm at 4° C., the supernatant (enzyme stock) was removed and stored in aliquots at −70° C. Each new batch of stock enzyme was titrated in the assay by dilution with enzyme diluent (100 mM Hepes pH 7.4, 0.2 mM sodium orthovanadate. 0.1% v/v Triton X100, 0.2 mM dithiothreitol). For a typical batch, stock enzyme is diluted 1 in 2000 with enzyme diluent and 50 μl of dilute enzyme is used for each assay well.
A stock of substrate solution was prepared from a random copolymer containing tyrosine, for example Poly (Glu, Ala, Tyr) 6:3:1 (Sigma P3899), stored as 1 mg/ml stock in PBS at −20° C. and diluted 1 in 500 with PBS for plate coating.
On the day of the assay the substrate solution was discarded and the assay plate wells were washed once with PBST (PBS containing 0.05% v/v Tween 20) and once with 50 mM Hepes pH7.4.
Test compounds were diluted with 10% dimethylsulphoxide (DMSO) and 25 μl of diluted compound was transferred to wells in the washed assay plates. “Total” control wells contained 10% DMSO instead of compound. Twenty five microliters of 40 mM manganese(II)chloride containing 8 μM adenosine-5′-triphosphate (ATP) was added to all test wells except “blank” control wells which contained maganese(II)chloride without ATP. To start the reactions 50 μl of freshly diluted enzyme was added to each well and the plates were incubated at room temperature for 20 minutes. The liquid was then discarded and the wells were washed twice with PBST. […] Plates were then incubated for 20-60 minutes at room temperature until the optical density value of the “total” control wells, measured at 405 nm using a plate reading spectrophotometer, was approximately 1.0.

SMILES: COc1cc2c(Nc3ccc(Cl)cc3F)ncnc2cc1OCCN1CCNC1=O [Example 40, 4-(4-chloro-2-fluoroanilino)6-methoxy-7-(2-(2-oxoimidazolidin-1-yl)ethoxy)quinazoline]
- activity against VEGF and EGF receptor tyrosine kinases [1]: substantially equivalent activity
- melting point: > 250 °C
